Test results reported in ChEMBL document CHEMBL3045586, “Synthesis and antimicrobial activity of some new 4-triazolylmethoxy-2H-chromen-2-one derivatives” (2012).
Converted amounts (≈) assume the structure as drawn.

Legend:
Aspergillus niger [1] = experiment: Fungicidal activity against Aspergillus niger MTCC 282 after 3 days; assay type: functional; details: MTCC 282, 72 h
Candida albicans [2] = experiment: Antifungal activity against Candida albicans MTCC 227 after 28 to 30 hr by serial dilution method; assay type: functional
Pseudomonas aeruginosa [3] = assay type: functional, MTCC 424
Aspergillus niger [4] = experiment: Antifungal activity against Aspergillus niger MTCC 282 after 28 to 30 hr by serial dilution method; assay type: functional
Escherichia coli [5] = experiment: Antibacterial activity against Escherichia coli MTCC 443 after 16 to 18 hr by serial dilution method; assay type: functional
Escherichia coli [6] = assay type: functional, MTCC 443
Aspergillus fumigatus [7] = experiment: Antifungal activity against Aspergillus fumigatus MTCC 343 after 28 to 30 hr by serial dilution method; assay type: functional
Escherichia coli [8] = experiment: Bactericidal against Escherichia coli MTCC 443 after 3 days; assay type: functional; details: MTCC 443, 72 h
Klebsiella pneumoniae [9] = experiment: Antibacterial activity against Klebsiella pneumoniae MTCC 432 after 16 to 18 hr by serial dilution method; assay type: functional
Candida albicans [10] = experiment: Fungicidal activity against Candida albicans MTCC 227 after 3 days; assay type: functional; details: MTCC 227, 72 h
Staphylococcus aureus [11] = assay type: functional, MTCC 096
Staphylococcus aureus [12] = experiment: Antibacterial activity against Staphylococcus aureus MTCC 096 after 16 to 18 hr by serial dilution method; assay type: functional
Aspergillus flavus [13] = experiment: Antifungal activity against Aspergillus flavus MTCC 277 at […] to […] ug/ml after 28 to 30 hr by cup-plate method; assay type: functional
[14] = system: Staphylococcus epidermidis; experiment: Antibacterial activity against Staphylococcus epidermidis MTCC 435 after 16 to 18 hr by serial dilution method; assay type: functional
Staphylococcus aureus [15] = experiment: Bactericidal activity against Staphylococcus aureus MTCC 096 after 3 days; assay type: functional; details: MTCC 096, 72 h
Klebsiella pneumoniae [16] = assay type: functional, MTCC 432
Salmonella typhi [17] = experiment: Antibacterial activity against Salmonella enterica subsp. enterica serovar Typhi MTCC 733 after 16 to 18 hr by serial dilution method; assay type: functional
Klebsiella pneumoniae [18] = experiment: Bactericidal activity against Klebsiella pneumoniae MTCC 432 after 3 days; assay type: functional; details: MTCC 432, 72 h
Salmonella typhi [19] = experiment: Antibacterial activity against Salmonella enterica subsp. enterica serovar Typhi MTCC 733 at […] to […] ug/ml after 16 to 18 hr by cup-plate method; assay type: functional
Bacillus subtilis [20] = assay type: functional, MTCC 441
Aspergillus fumigatus [21] = experiment: Antifungal activity against Aspergillus fumigatus MTCC 343 at […] to […] ug/ml after 28 to 30 hr by cup-plate method; assay type: functional
Aspergillus flavus [22] = experiment: Antifungal activity against Aspergillus flavus MTCC 277 after 28 to 30 hr by serial dilution method; assay type: functional
Bacillus subtilis [23] = experiment: Antibacterial activity against Bacillus subtilis MTCC 441 after 16 to 18 hr by serial dilution method; assay type: functional
Pseudomonas aeruginosa [24] = experiment: Antibacterial activity against Pseudomonas aeruginosa MTCC 424 after 16 to 18 hr by serial dilution method; assay type: functional
Candida albicans [25] = assay type: functional, MTCC 227
[26] = system: Staphylococcus epidermidis; assay type: functional, MTCC 435
Aspergillus niger [27] = experiment: Antifungal activity against Aspergillus niger MTCC 282 at […] to […] ug/ml after 28 to 30 hr by cup-plate method; assay type: functional

SMILES	MFC (Aspergillus niger [1])	MIC (Candida albicans [2])	inhibition zone (IZ) (Pseudomonas aeruginosa [3])	MIC (Aspergillus niger [4])	MIC (Escherichia coli [5])	inhibition zone (IZ) (Escherichia coli [6])	MIC (Aspergillus fumigatus [7])	MBC (Escherichia coli [8])	MIC (Klebsiella pneumoniae [9])	MFC (Candida albicans [10])	inhibition zone (IZ) (Staphylococcus aureus [11])	MIC (Staphylococcus aureus [12])	inhibition zone (IZ) (Aspergillus flavus [13])	MIC [14]	MBC (Staphylococcus aureus [15])	inhibition zone (IZ) (Klebsiella pneumoniae [16])	MIC (Salmonella typhi [17])	MBC (Klebsiella pneumoniae [18])	inhibition zone (IZ) (Salmonella typhi [19])	inhibition zone (IZ) (Bacillus subtilis [20])	further results
COc1cc(-c2nnc(COc3cc(=O)oc4ccccc34)[nH]2)cc(OC)c1OC	25 µg/mL (≈ 61.1 µM)	12.5 µg/mL (≈ 30.5 µM)	<10 mm	6.25 µg/mL (≈ 15.3 µM)	12.5 µg/mL (≈ 30.5 µM)	12 mm	25 µg/mL (≈ 61.1 µM)	25 µg/mL (≈ 61.1 µM)	12.5 µg/mL (≈ 30.5 µM)	25 µg/mL (≈ 61.1 µM)	14 mm	6.25 µg/mL (≈ 15.3 µM)	<10 mm	12.5 µg/mL (≈ 30.5 µM)	25 µg/mL (≈ 61.1 µM)	11 mm	6.25 µg/mL (≈ 15.3 µM)	25 µg/mL (≈ 61.1 µM)	14 mm	14 mm	inhibition zone (IZ) (Aspergillus fumigatus [21]): 11 mm; MIC (Aspergillus flavus [22]): 25 µg/mL (≈ 61.1 µM); MIC (Bacillus subtilis [23]): 6.25 µg/mL (≈ 15.3 µM); MIC (Pseudomonas aeruginosa [24]): 25 µg/mL (≈ 61.1 µM); inhibition zone (IZ) (Candida albicans [25]): 12 mm; inhibition zone (IZ) [26]: 12 mm; inhibition zone (IZ) (Aspergillus niger [27]): 14 mm
COc1cc(-c2nnc(COc3cc(=O)oc4ccccc34)[nH]2)ccc1O	12.5 µg/mL (≈ 34.2 µM)	6.25 µg/mL (≈ 17.1 µM)	<10 mm	12.5 µg/mL (≈ 34.2 µM)	6.25 µg/mL (≈ 17.1 µM)	13 mm	12.5 µg/mL (≈ 34.2 µM)	12.5 µg/mL (≈ 34.2 µM)	6.25 µg/mL (≈ 17.1 µM)	12.5 µg/mL (≈ 34.2 µM)	15 mm	6.25 µg/mL (≈ 17.1 µM)	<10 mm	50 µg/mL (≈ 137 µM)	12.5 µg/mL (≈ 34.2 µM)	15 mm	6.25 µg/mL (≈ 17.1 µM)	12.5 µg/mL (≈ 34.2 µM)	14 mm	11 mm	inhibition zone (IZ) (Aspergillus fumigatus [21]): 13 mm; MIC (Aspergillus flavus [22]): 25 µg/mL (≈ 68.4 µM); MIC (Bacillus subtilis [23]): 12.5 µg/mL (≈ 34.2 µM); MIC (Pseudomonas aeruginosa [24]): 25 µg/mL (≈ 68.4 µM); inhibition zone (IZ) (Candida albicans [25]): 14 mm; inhibition zone (IZ) [26]: <10 mm; inhibition zone (IZ) (Aspergillus niger [27]): 12 mm
O=c1cc(OCc2nnc(-c3ccco3)[nH]2)c2ccccc2o1	12.5 µg/mL (≈ 40.4 µM)	6.25 µg/mL (≈ 20.2 µM)	11 mm	6.25 µg/mL (≈ 20.2 µM)	6.25 µg/mL (≈ 20.2 µM)	15 mm	25 µg/mL (≈ 80.8 µM)	12.5 µg/mL (≈ 40.4 µM)	6.25 µg/mL (≈ 20.2 µM)	25 µg/mL (≈ 80.8 µM)	15 mm	6.25 µg/mL (≈ 20.2 µM)	12 mm	25 µg/mL (≈ 80.8 µM)	12.5 µg/mL (≈ 40.4 µM)	14 mm	25 µg/mL (≈ 80.8 µM)	25 µg/mL (≈ 80.8 µM)	<10 mm	<10 mm	inhibition zone (IZ) (Aspergillus fumigatus [21]): <10 mm; MIC (Aspergillus flavus [22]): 12.5 µg/mL (≈ 40.4 µM); MIC (Bacillus subtilis [23]): 50 µg/mL (≈ 162 µM); MIC (Pseudomonas aeruginosa [24]): 12.5 µg/mL (≈ 40.4 µM); inhibition zone (IZ) (Candida albicans [25]): 13 mm; inhibition zone (IZ) [26]: <10 mm; inhibition zone (IZ) (Aspergillus niger [27]): 14 mm
O=c1cc(OCc2nnc(-c3ccc(F)cc3)[nH]2)c2ccccc2o1	25 µg/mL (≈ 74.1 µM)	6.25 µg/mL (≈ 18.5 µM)	<10 mm	12.5 µg/mL (≈ 37.1 µM)	12.5 µg/mL (≈ 37.1 µM)	11 mm	12.5 µg/mL (≈ 37.1 µM)	25 µg/mL (≈ 74.1 µM)	6.25 µg/mL (≈ 18.5 µM)	12.5 µg/mL (≈ 37.1 µM)	13 mm	6.25 µg/mL (≈ 18.5 µM)	11 mm	50 µg/mL (≈ 148 µM)	12.5 µg/mL (≈ 37.1 µM)	13 mm	12.5 µg/mL (≈ 37.1 µM)	25 µg/mL (≈ 74.1 µM)	11 mm	<10 mm	inhibition zone (IZ) (Aspergillus fumigatus [21]): 12 mm; MIC (Aspergillus flavus [22]): 12.5 µg/mL (≈ 37.1 µM); MIC (Bacillus subtilis [23]): 50 µg/mL (≈ 148 µM); MIC (Pseudomonas aeruginosa [24]): 25 µg/mL (≈ 74.1 µM); inhibition zone (IZ) (Candida albicans [25]): 14 mm; inhibition zone (IZ) [26]: <10 mm; inhibition zone (IZ) (Aspergillus niger [27]): 13 mm
COc1ccc(-c2nnc(COc3cc(=O)oc4ccccc34)[nH]2)cc1OC	25 µg/mL (≈ 65.9 µM)	6.25 µg/mL (≈ 16.5 µM)	<10 mm	6.25 µg/mL (≈ 16.5 µM)	25 µg/mL (≈ 65.9 µM)	<10 mm	25 µg/mL (≈ 65.9 µM)	25 µg/mL (≈ 65.9 µM)	12.5 µg/mL (≈ 32.9 µM)	25 µg/mL (≈ 65.9 µM)	14 mm	6.25 µg/mL (≈ 16.5 µM)	<10 mm	25 µg/mL (≈ 65.9 µM)	12.5 µg/mL (≈ 32.9 µM)	11 mm	6.25 µg/mL (≈ 16.5 µM)	25 µg/mL (≈ 65.9 µM)	13 mm	<10 mm	inhibition zone (IZ) (Aspergillus fumigatus [21]): <10 mm; MIC (Aspergillus flavus [22]): 25 µg/mL (≈ 65.9 µM); MIC (Bacillus subtilis [23]): 25 µg/mL (≈ 65.9 µM); MIC (Pseudomonas aeruginosa [24]): 25 µg/mL (≈ 65.9 µM); inhibition zone (IZ) (Candida albicans [25]): 15 mm; inhibition zone (IZ) [26]: <10 mm; inhibition zone (IZ) (Aspergillus niger [27]): 13 mm
